Laboratory results from ChEMBL document CHEMBL1140022, “Adenosine phosphonate inhibitors of lipid II: alanyl tRNA ligase MurM from Streptococcus pneumoniae” (Bioorg Med Chem Lett, 2007).
The source made the active and inactive calls. The rule behind the calls is not given here.

How the values were obtained:
Streptococcus pneumoniae [1] = test: Inhibition of Streptococcus pneumoniae 159 MurM at 1 mM
[2] = Inhibition of Streptococcus pneumoniae 159 MurM
Streptococcus pneumoniae [3] = test: Antibacterial activity against penicillin-resistant Streptococcus pneumoniae 159 at 1 mM; type: functional, organism-based

| Activity (Streptococcus pneumoniae [1]) | SMILES | IC50 [2] [µM] | Activity (Streptococcus pneumoniae [3]) |
| --- | --- | --- | --- |
| inactive | COc1ccc(CC(N)C(=O)N[C@H]2[C@@H](O)[C@H](n3cnc4c(N(C)C)ncnc43)O[C@@H]2CO)cc1 (single isomer, unassigned) |  |  |
|  | CC(N)P(=O)(O)O[C@H]1C[C@H](n2cnc3c(N)ncnc32)O[C@@H]1CO (some centres undefined) | 100 | inactive |
|  | CC(N)P(=O)(O)O[C@@H]1[C@H](O)[C@@H](CO)O[C@H]1n1cnc2c(N)ncnc21 (some centres undefined) | 780 |  |
